Values quoted from earlier work, collected in patent publication EP4778926A1, “DEUTERATED DIARYL GLYCOLURIL TETRAMER COMPOUND AND USE THEREOF” (Shanghai Institute of Organic Chemistry, Chinese Academy of …, priority 2023, dated 2025).
Where two headings read alike, the source gives them in different places.

Legend:
[1] = for TOF→0.9 time, Average value: rats, Vecuronium Bromide (0.7 mg/kg), from literature (Liu et al.)
[2] = for TOF→0.9 time, Average time: rats, Rocuronium bromide (3.5 mg/kg), from literature (Liu et al.)
[3] = rats; pancuronium bromide (0.5 mg/kg); neostigmine 0.24 mg/kg; from literature (Liu et al.)
[4] = rats; Cisatracurium Besylate (0.6 mg/kg); neostigmine 0.24 mg/kg; from literature (Liu et al.)

O=C([O-])CCSC[C@H]1O[C@@H]2O[C@H]3[C@H](O)[C@@H](O)[C@@H](O[C@H]4[C@H](O)[C@@H](O)[C@@H](O[C@H]5[C@H](O)[C@@H](O)[C@@H](O[C@H]6[C@H](O)[C@@H](O)[C@@H](O[C@H]7[C@H](O)[C@@H](O)[C@@H](O[C@H]8[C@H](O)[C@@H](O)[C@@H](O[C@H]9[C@H](O)C(O)[C@@H](O[C@H]1[C@H](O)[C@H]2O)O[C@@H]9CSCCC(=O)[O-])O[C@@H]8CSCCC(=O)[O-])O[C@@H]7CSCCC(=O)[O-])O[C@@H]6CSCCC(=O)[O-])O[C@@H]5CSCCC(=O)[O-])O[C@@H]4CSCCC(=O)[O-])O[C@@H]3CSCCC(=O)[O-].[Na+].[Na+].[Na+].[Na+].[Na+].[Na+].[Na+].[Na+] (some centres unmarked) [Sugammadex Sodium]
TOF→0.9 time, Average value ([1]; Sugammadex Sodium 25 mg/kg): 18 s | time that TOF recovered to 0.9 ([1]; vecuronium bromide, sugammadex sodium at the same dose (25 mg/kg), literature data): 18 s | TOF→0.9 time, Average time ([2]; Sugammadex Sodium 25 mg/kg): 52 s | time that TOF recovered to 0.9 ([2]; rocuronium bromide, sugammadex sodium at the same dose (25 mg/kg), literature data): 52 s

CN(C)C(=O)Oc1cccc([N+](C)(C)C)c1 [neostigmine]
TOF→0.9 time, Average value [3]: 1371 s | TOF→0.9 time, Average value ([1]; neostigmine 0.24 mg/kg): 315 s | TOF→0.9 time, Average time ([2]; neostigmine 0.24 mg/kg): 363 s | TOF→0.9 time, Average time [4]: 210 s
